As a reminder, the IC50 is the midpoint of a concentration-inhibition curve. Low values mean greater potency, high ones weaker potency. As usually defined, the EC50 is the concentration needed to bring the measured effect to its halfway point.

In data set [1] the target is T1, Glycine receptor subunit alpha-2 (Homo sapiens, UniProt P23416).
T1 sequence (P23416 whole entry): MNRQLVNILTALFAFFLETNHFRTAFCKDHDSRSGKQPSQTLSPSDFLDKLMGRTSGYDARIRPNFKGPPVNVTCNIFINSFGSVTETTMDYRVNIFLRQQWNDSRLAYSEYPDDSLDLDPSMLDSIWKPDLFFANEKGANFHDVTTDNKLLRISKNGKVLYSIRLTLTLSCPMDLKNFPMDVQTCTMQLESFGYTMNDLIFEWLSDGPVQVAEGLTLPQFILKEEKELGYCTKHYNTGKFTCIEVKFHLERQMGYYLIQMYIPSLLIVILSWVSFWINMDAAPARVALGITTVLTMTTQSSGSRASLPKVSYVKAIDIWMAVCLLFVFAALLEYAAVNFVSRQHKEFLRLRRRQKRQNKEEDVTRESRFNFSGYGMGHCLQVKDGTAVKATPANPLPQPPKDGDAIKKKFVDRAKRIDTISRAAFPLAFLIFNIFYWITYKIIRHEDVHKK
As to the kind of experiment: Inhibition of human […] glycine receptor alpha 2 expressed in HEK293 cells. Type of data set: cell-based.

The nature of data set [2]: Cytotoxicity against HEK293 cells assessed as inhibition of cell growth incubated for 48 hrs by CCK8 assay. Type of data set: toxicity, cell-based. The following applies: human.
Data set [3] addresses T2, Glycine receptor subunit alpha-1 (Homo sapiens, UniProt P23415).
T2 sequence (P23415 whole entry): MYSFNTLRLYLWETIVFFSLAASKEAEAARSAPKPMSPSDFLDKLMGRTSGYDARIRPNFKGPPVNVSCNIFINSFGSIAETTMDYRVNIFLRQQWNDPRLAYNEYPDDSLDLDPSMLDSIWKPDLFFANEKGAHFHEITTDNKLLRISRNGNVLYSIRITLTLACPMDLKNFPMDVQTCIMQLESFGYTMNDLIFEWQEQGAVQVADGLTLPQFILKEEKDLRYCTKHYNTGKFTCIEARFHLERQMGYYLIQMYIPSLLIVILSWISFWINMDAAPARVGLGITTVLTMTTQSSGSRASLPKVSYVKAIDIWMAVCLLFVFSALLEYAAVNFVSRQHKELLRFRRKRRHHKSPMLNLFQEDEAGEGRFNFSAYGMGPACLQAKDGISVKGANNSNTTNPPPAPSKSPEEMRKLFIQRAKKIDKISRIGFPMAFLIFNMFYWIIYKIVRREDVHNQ
Put plainly: Inhibition of human […] glycine receptor alpha 1 expressed in HEK293 cells. Type of data set: cell-based.

Data set [4] is described as follows: Inhibition of […] glycine receptor (unknown origin) expressed in HEK293 cells. Type of data set: cell-based, Homo sapiens.

In data set [1], `C=C(C)[C@@H]1CCC(C)=C[C@H]1c1c(O)cc(CCCCC)cc1O` [CANNABIDIOL] gave an IC50 of 2700 nM. Besides, the EC50 at 48 h in data set [2] is 12 µM. Turning to `CCCCCCC(C)(C)c1cc(O)c2c(c1)OC(C)(C)[C@@H]1CC=C(CO)C[C@@H]21`, the IC50 in data set [3] is 2700 nM. In data set [4], `CCCCCc1cc(O)c2c(c1)OC(C)(C)[C@@H]1CCC(C)=C[C@@H]21` [DRONABINOL] displayed an IC50 of 2700 nM.

These data come from ChEMBL document CHEMBL5528078, “Structural Basis for Molecular Recognition of Cannabinoids by Inhibitory Cys-Loop Channels” (J Med Chem, 2024).
